The record followed here is US10765687B2, “Methods and compounds to inhibit enveloped virus release” (Northwestern University, priority 2012, dated 2020).

Entries after “also recorded” stand apart in the source; their conditions may differ. No end group written: not given here.

In general, Kd refers to the constant that tells how readily two partners part at equilibrium.

Series [1] deals with HSV-1 (strain F). The series can be described thus: HSV-1 virus production and release from infected Vero cells, plaque assay. Format: cell-based. To be noted: FIG. 8A. As to the method:
Vero cells were inoculated with HSV-1 (strain F) at a multiplicity of infection (MOI) of 0.01 for 2 hr. The cells were washed and treated with 0.10 M sodium citrate buffer to inactivate viruses on the outside of the cells (for example, in the culture medium). The culture medium was replaced with fresh culture medium containing no inhibitor compound or different concentrations (40 μM or 80 μM) of inhibitor compounds F15 or N16 (candidate PTAP motif inhibitors against the TSG101 peptide [SEQ ID NO:33]) for 48 hr. The supernatants (culture medium) and total cells (culture medium and cells) were collected for determining infectious virus titer. The virus titers were determined by standard plaque assay on Vero cells.
Vero cells were grown in DMEM supplemented with 10% FBS. Viral infections were performed in DMEM supplemented with 1% heat-inactivated FBS. Vero cells were inoculated HSV-1 (strain F) at indicated concentrations, after 2 h, the cells were washed and treated with 0.1 M sodium citrate buffer (pH 3.0) for 1 min to inactivate unpenetrated viruses, washed again and incubated with fresh medium containing 1% heat-inactivated FBS. […] Then virus titers were determined by standard plaque assay on Vero cells.

For series [2], the target named is T1, TSG101 (SEQ ID NO:33) (Homo sapiens, UniProt Q99816).
T1 construct: polyhistidine leader with thrombin cleavage site (pET28b) (N); TEV cleavage site (N); made in house
T1 sequence (Q99816 with tags, fused parts or gaps): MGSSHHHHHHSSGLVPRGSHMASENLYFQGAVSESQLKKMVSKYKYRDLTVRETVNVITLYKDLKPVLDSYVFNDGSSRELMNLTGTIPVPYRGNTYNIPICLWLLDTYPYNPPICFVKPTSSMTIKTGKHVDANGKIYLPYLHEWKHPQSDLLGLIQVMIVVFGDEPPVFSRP
The series can be described thus: Fluorescence-based thermal shift (FTS) assay. It is filed as binding. The settings on record: FIG. 7. The protocol: The fluorescence-based thermal shift assay is based on the observation that a protein unfolds upon heating, exposing the hydrophobic residues within its tertiary structure. The unfolding temperature (Tm) is determined by the protein's primary sequence and solution environment. The FTS assay uses a fluorescent dye sensitive to a hydrophobic environment to probe protein stability and its modulation by small molecule ligands. The dye has a low fluorescence quantum yield when in a polar environment. […] J Biomol Screen 6: 429-440; Lo M C, Aulabaugh A, Jin G, Cowling R, Bard J, et al. (2004) Evaluation of fluorescence-based thermal shift assays for hit identification in drug discovery. […]
The NU-HTA has developed a robotic pipeline for small molecule protein ligand screening by FTS. See Luan C H, Light S H, Dunne S F, Anderson W F. Ligand screening using Fluorescence Thermal Shift Analysis (FTS). […] The pipeline uses an Echo550 acoustic transfer robot (Labcyte, CA) for compound addition and the Mosquito robot (TTP LabTechnologies, UK) for protein dispensing followed by thermal scanning coupled with fluorescence detection which is performed on a real-time PCR machine CFX384 (Bio-Rad Laboratories). […]

The test system of series [3] is Vero cells. The series can be described thus: MTS cytotoxicity assay. The settings on record: 0 μM to 100 μM, uninfected cells, absorbance at 490 nm, FIG. 8B; listed as N16. The protocol: The cytotoxicity of the compounds was determined by a commercially available assay (Celltiter 96® AQueous One Solution cell proliferation assay reagent; Promega, Madison, Wis.), as described previously (Akkarawongsa et al., 2006). The CellTiter 96® AQueous One Solution Cell Proliferation Assay is a colorimetric method for determining the number of viable cells in proliferation, cytotoxicity or chemosensitivity assays. The CellTiter 96® AQueous One Solution Reagent contains a tetrazolium compound [3-(4,5-dimethylthiazol-2-yl)-5-(3-carboxymethoxyphenyl)-2-(4-sulfophenyl)-2H-tetrazolium, inner salt; MTS] and an electron coupling reagent (phenazine ethosulfate; PES). PES has enhanced chemical stability, which allows it to be combined with MTS to form a stable solution. […] Assays are performed by adding a small amount of the CellTiter 96® AQueous One Solution Reagent directly to culture wells, incubating for 1-4 hours and then recording absorbance at 490 nm with a 96-well plate reader. The quantity of formazan product as measured by the amount of 490 nm absorbance is directly proportional to the number of living cells in culture.
Briefly, Vero cells (1.5×10^4 cells/well) were seeded in a 96-well plate, and the plate was incubated for 24 h at 37° C. […] The plate was then incubated for 2 h at 37° C., and the absorbance at 490 nm was determined with a 96-well plate reader (Perkin Elmer).
(In general: Tetrazolium assays rely on reduction of a dye to a coloured formazan, in cell work by metabolically active cells.)

Series [4] deals with T2, WWP2 (SEQ ID NO:24) (Homo sapiens, UniProt O00308).
T2 construct: poly-His (pET28b leader with thrombin site) (N, cleaved yes); made in house; host or cells: E. coli BL21 DE3
T2 sequence (O00308 with tags, fused parts or gaps): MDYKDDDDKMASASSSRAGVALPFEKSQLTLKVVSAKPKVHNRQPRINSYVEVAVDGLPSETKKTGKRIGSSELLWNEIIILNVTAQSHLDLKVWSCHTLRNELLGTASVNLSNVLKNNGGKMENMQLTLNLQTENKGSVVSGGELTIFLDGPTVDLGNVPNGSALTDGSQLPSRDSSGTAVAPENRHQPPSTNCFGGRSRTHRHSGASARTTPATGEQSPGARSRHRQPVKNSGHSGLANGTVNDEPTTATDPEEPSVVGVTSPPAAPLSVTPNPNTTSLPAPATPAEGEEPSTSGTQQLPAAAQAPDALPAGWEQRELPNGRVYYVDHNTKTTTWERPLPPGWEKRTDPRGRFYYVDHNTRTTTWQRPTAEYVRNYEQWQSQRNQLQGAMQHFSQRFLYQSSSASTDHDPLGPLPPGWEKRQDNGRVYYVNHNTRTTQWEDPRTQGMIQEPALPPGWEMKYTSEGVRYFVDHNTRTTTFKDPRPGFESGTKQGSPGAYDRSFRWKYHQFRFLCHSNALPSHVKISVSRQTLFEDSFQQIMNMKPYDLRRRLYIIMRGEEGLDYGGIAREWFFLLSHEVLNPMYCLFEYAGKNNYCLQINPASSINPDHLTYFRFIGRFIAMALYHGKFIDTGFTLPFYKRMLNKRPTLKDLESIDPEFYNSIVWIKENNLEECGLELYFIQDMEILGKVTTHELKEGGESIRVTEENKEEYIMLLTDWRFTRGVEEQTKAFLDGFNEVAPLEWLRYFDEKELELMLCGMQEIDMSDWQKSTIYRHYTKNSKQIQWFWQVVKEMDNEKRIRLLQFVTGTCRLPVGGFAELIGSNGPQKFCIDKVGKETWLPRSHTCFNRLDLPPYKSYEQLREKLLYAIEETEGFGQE
The series can be described thus: Fluorescence polarization assay (FITC/TAMRA) for disruption of WWP2 binding to PY-motif peptide probe. The settings on record: SEQ ID NO: 17 probe with FITC or TAMRA label; read-out: [compound] to achieve 50% change in fluorescence polarization in FP Assay. The protocol:
Screens for compounds that disrupt the binding of the FTIC-peptide and WWP2 (SEQ ID NO:24) were carried out in 384-well plate format with […] assay volume at ˜[…] WWP2. Non-binding solid black plates (Corning Costar 3575) were used. The assay buffer contained 20 mM Tris and 150 mM NaCl at pH 7.9. FP was measured on either a Biotek Synergy4 or an Analyst GT plate reader. Data analysis was performed using the in-house software excelHTS. […] Each assay plate included 16 negative control wells containing protein-probe mix but no compounds and 16 wells containing only probe.
On the technique in general: In fluorescence polarisation assays a small probe gives low polarisation when free and higher when bound to something large.

Series [5] has as its target T2, WWP2 (SEQ ID NO:24). Description: Epic label-free binding assay of compounds to immobilized WWP2. The protocol: Another preferred embodiment of an in vitro screening method is depicted in FIG. 3. In this method, the ability of the candidate compound 204 to directly interact with the cellular ESCRT-linked component protein (for example, Nedd4 family of polypeptides [for example, WWP1 (SEQ ID NO:29), WWP2 (SEQ ID NO:24), Nedd4 L, among others]) or TGS101 is evaluated. According to this embodiment, a cellular ESCRT component protein 202 is preferably immobilized to a substrate 201 (for example, a microtiter plate) via a linking group 203 (for example, an amine group). The substrate preferably includes an optional reference area that provides a control to prevent non-specific interactions with non-mobilized ESCRT complex protein 202 with substrate 201. The substrate 201 is washed and irradiated with broadband light so that a baseline refractive index is measured. Test compound 204 is added to the system to permit its binding to the immobilized ESCRT component protein 202 to form a resultant associative complex 205. The substrate 201 is irradiated with broadband light again to detect a change in the wavelength of the reflected light.
High sensitivity biochemical plates (PerkinElmer Cat. No. 6057468) are used in WWP2 (SEQ ID NO:24) binding assay to maximize protein immobilization. […] Because compound stocks are in DMSO that affects the Epic label-free readout, the compound plates were prepared by Echo550 acoustic dispenser to keep DMSO content balanced for all wells. […]
The binding of compounds to WWP2 (SEQ ID NO:24) was measured on the EnSpire label-free plate reader. After 25 minutes of thermal equilibration, a baseline reading was taken on the label-free plates with protein immobilized in assay buffer. […] The final reading was taken after 25 min of thermal equilibration and over a period of 60 minutes. The label-free responses were measured as shifts in reflected wavelength and were expressed in picometers (pm). Results were analyzed using the EnSpire label-free user interface software. […]

The target in series [6] is T3, WWP2 polypeptide (SEQ ID NO:24) (Homo sapiens, UniProt O00308).
T3 construct: poly-His (pET28b leader with thrombin site) (N, cleaved yes); made in house; host or cells: E. coli BL21 DE3
T3 sequence (O00308 with tags, fused parts or gaps): as above
The series can be described thus: Fluorescence polarization WWP2 protein dose-response, binding of PY-motif peptide probes. The protocol:
[…] Non-binding solid black plates (Corning Costar 3575) were used. The assay buffer contained 20 mM Tris and 150 mM NaCl at pH 7.9. FP was measured on either a Biotek Synergy4 or an Analyst GT plate reader. Data analysis was performed using the in-house software excelHTS. […] Each assay plate included 16 negative control wells containing protein-probe mix but no compounds and 16 wells containing only probe.

In the case of `COc1ccc2[nH]c([S+]([O-])Cc3ncc(C)c(OC)c3C)nc2n1` (racemic) [Tenatoprazole, (RS)-3-Methoxy-8-[(4-methoxy-3,5-dimethyl-pyridin-2-yl)methylsulfinyl]-2,7,9-triazabicyclo[4.3.0]nona-2,4,8,10-tetraene], the “HSV-1 virion release from cells (in words)” value in series [1] was “inhibit HSV-1 virion release from cells”. The “Thermal shift in protein unfolding (Tm) of TSG101” value in series [2] was “lower Tm”. In addition, the “Cytotoxic effects on Vero cells” value in series [3] was “Neither inhibitor compound was cytotoxic; also recorded: not toxic; also recorded: did not display cytotoxic effects”.

As to `CCC(/C=C1\Sc2cc(Br)ccc2N1CC)=C\c1sc2cc(Br)ccc2[n+]1CC` [CD23-G07], in series [4], the IC50 is 20 to 30 µM.

The compound `CC1=C(O)C(=O)C=C2C1=CC=C1[C@@]2(C)CC[C@@]2(C)[C@@H]3C[C@](C)(C(=O)O)CC[C@]3(C)CC[C@]12C` [Celastrol, 3-Hydroxy-9β,13α-dimethyl-2-oxo-24,25,26-trinoroleana-1(10),3,5,7-tetraen-29-oic acid] showed a Kd in series [5] of 18.5 µM.

As to `COc1ccc2[n-]c([S@@+]([O-])Cc3ncc(C)c(OC)c3C)nc2c1.[K+]` [Esomeprazole potassium, 5-methoxy-2-[(R)-[(4-methoxy-3,5-dimethylpyridin-2-yl)methane]sulfinyl]-1H-1,3-benzodiazole, potassium], in series [1], the “HSV-1 virion release from cells (in words)” value is on record as “inhibit HSV-1 virion release from cells”.

With `O=C1c2ccccc2C(=O)c2c(NC3CCCCC3)ccc(Nc3ccc(S(=O)(=O)O)cc3)c21` [NSC128437], the IC50 in series [4] came to 3 µM.

On to `Cc1nn(-c2ccc(S(=O)(=O)[O-])cc2)c([O-])c1N=Nc1ccc(-c2ccc(N=Nc3ccc4c(S(=O)(=O)[O-])cc(S(=O)(=O)[O-])c(N)c4c3[O-])c([O-])c2)cc1[O-].[Cu+2].[Cu+2].[H+].[H+].[H+]` [NSC306711], for which the IC50 in series [4] was 1 µM.

As for “ATASAPPPYVGSGGGATASAPPPYVGSGGGATASAPPPYVGSGGGRRR [SEQ ID NO:17]”, the Kd in series [6] is 0.2 µM.
